Experimental data: BindingDB's records for doi:10.7270/Q2TX3CTT (Broad Institute, 2010)

The molecules below were run against Glycogen synthase kinase-3 beta (Homo sapiens, UniProt P49841) (assay: concentration-response blocking of human GSK3B – biochemical, luminescence, cell-free homogeneous, retest, dose response (AID 434954)).
Glycogen synthase kinase-3 beta, sequence (P49841 whole entry): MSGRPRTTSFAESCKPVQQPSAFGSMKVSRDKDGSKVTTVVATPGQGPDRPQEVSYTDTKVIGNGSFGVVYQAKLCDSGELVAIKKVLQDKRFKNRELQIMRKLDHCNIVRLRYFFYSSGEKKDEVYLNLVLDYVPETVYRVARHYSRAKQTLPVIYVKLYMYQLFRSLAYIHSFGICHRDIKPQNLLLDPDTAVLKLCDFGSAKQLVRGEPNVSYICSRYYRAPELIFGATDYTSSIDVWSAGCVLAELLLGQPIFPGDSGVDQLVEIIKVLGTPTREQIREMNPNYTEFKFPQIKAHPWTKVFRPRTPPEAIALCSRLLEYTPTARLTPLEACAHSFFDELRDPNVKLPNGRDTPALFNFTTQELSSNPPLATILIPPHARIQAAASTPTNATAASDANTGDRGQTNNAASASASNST

| Structure (SMILES) | EC50 [µM] |
| --- | --- |
| CCSc1ccc2nnc(-c3ccc(F)cc3)n2n1 [SMR000028943] | 2.82 |
| COc1ccccc1Nc1nc(N(C)c2ccccc2)nc(N)c1[N+](=O)[O-] [SMR000542836] | > 300 |
| CC1CCCCC1NS(=O)(=O)c1ccc2c(c1)CC(=O)N2C (stereo unspecified) | > 300 |
| CCCc1cc(=O)[nH]c2nnc(SCC(=O)Nc3nccs3)n12 [2-[(7-oxidanylidene-5-propyl-1H-[1,2,4]triazolo[4,3-a]pyrimidin-3-yl)sulfanyl]-N-(1,3-thiazol-2-yl)ethanamide] | > 300 |
| Nc1nc(NCCOCCO)nc(NCC2CCCO2)c1[N+](=O)[O-] (stereo unspecified) | 16.7 |
| Cc1nc(NCCCn2ccnc2)c2oc3ccccc3c2n1 [MLS000082652] | > 300 |
| CCOC(=O)C1C(C)=Nc2ncnn2C1c1cccs1 (stereo unspecified) | 57.9 |
| CN(C)c1ccc(/N=N/c2ccc(S(N)(=O)=O)cc2)cc1 | > 300 |
| Cc1cccc(Nc2nc(NCCCN3CCOCC3)nc(N)c2[N+](=O)[O-])c1 [N4-(3-methylphenyl)-N2-(3-morpholin-4-ylpropyl)-5-nitro-pyrimidine-2,4,6-triamine] | 1.72 |
| O=C(Nc1ccncc1)Nc1ccccn1 [1-pyridin-2-yl-3-pyridin-4-yl-urea] | 4.96 |
| CCN1C(=O)N[C@@H](c2ccccc2)[C@@H](C(=O)OC)[C@H]1C [CMLD004197] | > 300 |
| Cc1ccccc1-c1nnc(SCCOc2ccc3c(C)cc(=O)oc3c2)o1 | > 300 |
| CCn1c(C=CN(C(C)=O)c2ccccc2)[n+](CC)c2cc(Cl)ccc21 [N-[(E)-2-(5-chloro-1,3-diethylbenzimidazol-1-ium-2-yl)ethenyl]-N-phenylacetamide;iodide] | > 300 |
| COCCn1c(SCC(=O)NC(=O)NC(C)(C)C)nc2ccccc21 | > 300 |
| COc1ccc(CNC(=O)CN(Cc2ccccc2)C(=O)CCC(=O)Nc2nccs2)cc1 [N'-[2-[(4-methoxyphenyl)methylamino]-2-oxoethyl]-N'-(phenylmethyl)-N-(2-thiazolyl)butanediamide] | 11.1 |
| CCN(CC)S(=O)(=O)c1ccc(O)c(C(=O)OCC(=O)Nc2cc(C)c(C)cc2[N+](=O)[O-])c1 | > 300 |
| Cc1cc2oc(=O)cc(Cn3ccnc3)c2cc1O [6-hydroxy-4-(imidazol-1-ylmethyl)-7-methylchromen-2-one] | > 300 |
| CCOC(=O)C1C(C)=Nc2ncnn2C1c1cccnc1 (stereo unspecified) | > 300 |
| COc1ccc(C(=O)c2sc(Nc3ccccc3F)nc2N)cc1 | 1.48 |
| Clc1ccccc1CN1CCN(c2cccc3[nH]ccc23)CC1 [4-[4-[(2-chlorophenyl)methyl]piperazin-1-yl]-1H-indole] | > 300 |
| COc1ccc(Nc2nc(Nc3ccc(OC)cc3)nc(-n3[nH]c(=O)c(C)c3C)n2)cc1 [2-[4,6-bis(4-methoxyanilino)-1,3,5-triazin-2-yl]-3,4-dimethyl-1H-pyrazol-5-one] | > 300 |
| Cc1ccc(NC(=O)Nc2cc(-c3ccccc3)nn2C)cc1Cl [N-(3-chloro-4-methylphenyl)-N'-(1-methyl-3-phenyl-1H-pyrazol-5-yl)urea] | > 300 |
| O=C1Nc2cc(C(=O)NCCCN3CCCC3)ccc2S/C1=C\c1ccccc1 [(2Z)-3-oxidanylidene-2-(phenylmethylidene)-N-(3-pyrrolidin-1-ylpropyl)-4H-1,4-benzothiazine-6-carboxamide] | 5.9 |
| CCn1nc(NC(=O)CC(C)C)c2cc3ccc(C)cc3nc21 [N-(1-ethyl-7-methylpyrazolo[3,4-b]quinolin-3-yl)-3-methylbutanamide] | > 300 |
| CCCNc1nc(N)nc(-c2cc(Cl)ccc2OC)n1 [MLS000538216] | > 300 |
| O=C(Nc1ccccn1)Nc1ccccc1Cl | > 300 |

| Structure (SMILES) | EC50 [µM] |
| --- | --- |
| O=c1c2ccccc2cnn1-c1nc2ccccc2[nH]1 [MLS001017304] | 25.1 |
| COc1ccccc1NC(=O)C(C)Nc1ccc(C)c(Cl)c1 (stereo unspecified) | > 300 |
| CC(=O)N1CCc2c(sc(NC(=O)CS(=O)(=O)c3ccc(F)cc3)c2C(N)=O)C1 [SMR000808580] | > 300 |
| CSc1nc(NCC(C)O)c2c3c(sc2n1)CN(C)CC3 (stereo unspecified) [1-[(7-methyl-2-methylsulfanyl-6,8-dihydro-5H-pyrido[4,5]thieno[1,2-c]pyrimidin-4-yl)amino]propan-2-ol] | 18.3 |
| COc1ccc(C(=O)c2coc3ccc(O)c(CN4CCOCC4)c23)cc1 [MLS000115876] | > 300 |
| CC(=O)c1cccc(NC(=O)NN2CCN(C)CC2)c1 [1-(3-ethanoylphenyl)-3-(4-methylpiperazin-1-yl)urea] | > 300 |
| CC(C)OC(=O)c1nnn(-c2nonc2N)c1CSc1ccccn1 [1-(4-amino-1,2,5-oxadiazol-3-yl)-5-[(2-pyridinylthio)methyl]-4-triazolecarboxylic acid propan-2-yl ester] | 54.1 |
| CCOC(=O)CSc1ccc2nnc(-c3cccs3)n2n1 [ethyl 2-[(3-thiophen-2-yl-[1,2,4]triazolo[4,3-b]pyridazin-6-yl)sulfanyl]ethanoate] | 4.1 |
| Cc1nccc(-c2cccc(NC(=O)c3ccccc3Cl)c2)n1 [MLS000859188] | > 300 |
| COc1cccc2cc(C(=O)Oc3ccccc3)c(=O)oc12 [MLS000999696] | > 300 |
| COc1ccccc1NC(=S)NC1CCCCCCCCCCC1 [SMR000460399] | > 300 |
| COc1ccc(Nc2nc(N)c([N+](=O)[O-])c(NCCO)n2)cc1 [2-[6-Amino-2-(4-methoxy-phenylamino)-5-nitro-pyrimidin-4-ylamino]-ethanol] | 2.6 |
| Cc1ccc(/C=C2/Sc3ccc(C(=O)NCCN4CCOCC4)cc3NC2=O)cc1 | > 300 |
| CN(C)CCCNc1ccc(-c2cc(Nc3cccc(Cl)c3)ncn2)cn1 [SMR000463569] | 12.2 |
| CCNc1nc(N)nc(-c2cc(Cl)ccc2O)n1 [(6E)-6-[6-amino-4-(ethylamino)-1H-1,3,5-triazin-2-ylidene]-4-chloro-1-cyclohexa-2,4-dienone] | 3.56 |
| O=C(Nc1cccc(-c2cnc3ccccc3n2)c1)c1ccccc1 [N-[3-(2-quinoxalinyl)phenyl]benzamide] | > 300 |
| O=C(Nc1ccccc1Cl)N1CCSc2ccccc21 [N-(2-chlorophenyl)-2,3-dihydro-4H-1,4-benzothiazine-4-carboxamide] | > 300 |
| CC1CCCCN1c1nnc(N)s1 (stereo unspecified) [5-(2-methyl-1-piperidinyl)-1,3,4-thiadiazol-2-amine] | > 300 |
| CCOCCOC(=O)c1ccc(-n2cnc(C)n2)nc1 [SMR000337218] | > 300 |
| CCOC(=O)c1nnn(-c2nonc2N)c1CN1CCc2ccccc2C1 [ethyl 1-(4-amino-1,2,5-oxadiazol-3-yl)-5-(3,4-dihydro-1H-isoquinolin-2-ylmethyl)triazole-4-carboxylate] | 71.5 |
| CN1CCc2c(sc3c2c(=O)n(-c2ccccc2)c2nnc(SCc4ccc(Cl)cc4)n32)C1 [SMR000045323] | > 300 |
| Cc1ccc(C(=O)c2coc3ccc(OCC(=O)O)cc23)cc1 [2-[[3-[(4-methylphenyl)-oxomethyl]-5-benzofuranyl]oxy]acetic acid] | 3.66 |
| C=CCN=C(NC#N)SC [methyl N-cyano-N'-prop-2-enyl-carbamimidothioate] | > 300 |
| CCSc1nc2sc3c(c2c(=O)n1-c1ccccc1)CCN(C)C3 [2-Ethylsulfanyl-7-methyl-3-phenyl-5,6,7,8-tetrahydro-3H-9-thia-1,3,7-triaza-fluoren-4-one] | > 300 |
| c1ccc(CN=Nc2nccc(-c3cccnc3)n2)cc1 | 16.9 |
